Reference: PubChem BioAssay (NCI)
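At the GI50, growth is halved. TGI marks complete inhibition of growth.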

Experiments:
Experiment in all cases: growth of human tumour cells (NCI), 384-well format
NCI-H460 NSCLC = test system: NCI-H460 NSCLC
HOP-92 NSCLC = test system: HOP-92 NSCLC
HCT-15 colon = test system: HCT-15 colon
K-562 leukemia = test system: K-562 leukemia
RPMI-8226 leukemia = test system: RPMI-8226 leukemia
SNB-19 CNS = test system: SNB-19 CNS
A549 NSCLC = test system: A549 NSCLC
M14 melanoma = test system: M14 melanoma
MDA-MB-435 melanoma = test system: MDA-MB-435 melanoma
UO-31 renal = test system: UO-31 renal
A498 renal = test system: A498 renal
TK-10 renal = test system: TK-10 renal
MCF7 breast = test system: MCF7 breast
DU-145 prostate = test system: DU-145 prostate
OVCAR-4 ovarian = test system: OVCAR-4 ovarian
T-47D breast = test system: T-47D breast
CCRF-CEM leukemia = test system: CCRF-CEM leukemia
NCI-H226 lung = test system: NCI-H226 lung
786-0 renal = test system: 786-0 renal
SF-295 CNS = test system: SF-295 CNS
COLO 205 colon = test system: COLO 205 colon
SW-620 colon = test system: SW-620 colon
HOP-62 NSCLC = test system: HOP-62 NSCLC
HS 578T breast = test system: HS 578T breast
U251 glioblastoma = test system: U251 glioblastoma
MOLT-4 leukemia = test system: MOLT-4 leukemia
MDA-MB-231 breast = test system: MDA-MB-231 breast
SNB-75 CNS = test system: SNB-75 CNS
NCI-H322M lung = test system: NCI-H322M lung
SF-268 CNS = test system: SF-268 CNS
ACHN renal = test system: ACHN renal
HL-60(TB) leukemia = test system: HL-60(TB) leukemia
KM12 colon = test system: KM12 colon
SK-MEL-5 melanoma = test system: SK-MEL-5 melanoma
HT29 colon = test system: HT29 colon
UACC-62 melanoma = test system: UACC-62 melanoma
NCI/ADR-RES ovarian = test system: NCI/ADR-RES ovarian
NCI-H522 lung = test system: NCI-H522 lung
CAKI-1 renal = test system: CAKI-1 renal
HCT-116 colon = test system: HCT-116 colon
IGROV1 ovarian = test system: IGROV1 ovarian
HCC-2998 colon = test system: HCC-2998 colon
SK-MEL-28 melanoma = test system: SK-MEL-28 melanoma
OVCAR-3 ovarian = test system: OVCAR-3 ovarian
SK-OV-3 ovarian = test system: SK-OV-3 ovarian
LOX IMVI melanoma = test system: LOX IMVI melanoma
NCI-H23 lung = test system: NCI-H23 lung

For `CC(C)C[C@H](NC(=O)[C@H](Cc1ccccc1)NC(=O)c1cnccn1)B(O)O`, the GI50 (NCI-H460 NSCLC) was under 13 nM, the TGI (NCI-H460 NSCLC) was 19.9 nM and the GI50 (HOP-92 NSCLC) was under 10 nM. For the same compound, the TGI (HOP-92 NSCLC) was under 10 nM, the GI50 (HCT-15 colon) was under 10 nM and the TGI (HCT-15 colon) was under 13.6 nM. For the same compound, the GI50 (K-562 leukemia) was under 10 nM, the TGI (K-562 leukemia) was under 10 nM and the GI50 (RPMI-8226 leukemia) was under 10 nM. For the same compound, the TGI (RPMI-8226 leukemia) was under 10 nM, the GI50 (SNB-19 CNS) was under 10 nM and the TGI (SNB-19 CNS) was under 15.8 nM. For the same compound, the GI50 (A549 NSCLC) was under 10 nM, the TGI (A549 NSCLC) was 62 nM and the GI50 (M14 melanoma) was under 10 nM. It also gave a TGI (M14 melanoma) of under 10 nM, a GI50 (MDA-MB-435 melanoma) of under 10 nM and a TGI (MDA-MB-435 melanoma) of under 10 nM. The GI50 (UO-31 renal) was under 10 nM, the TGI (UO-31 renal) was under 10 nM and the GI50 (A498 renal) was under 10 nM. The TGI (A498 renal) was under 12.4 nM, the GI50 (TK-10 renal) was under 10 nM and the TGI (TK-10 renal) was under 10 nM. For the same compound, the GI50 (MCF7 breast) was under 10 nM, the TGI (MCF7 breast) was 13.9 nM and the GI50 (DU-145 prostate) was under 10 nM. The TGI (DU-145 prostate) was under 13.8 nM, the GI50 (OVCAR-4 ovarian) was under 10 nM and the TGI (OVCAR-4 ovarian) was under 10 nM. The GI50 (T-47D breast) was under 10 nM, the TGI (T-47D breast) was under 10 nM and the GI50 (CCRF-CEM leukemia) was under 10 nM. The TGI (CCRF-CEM leukemia) was under 10 nM, the GI50 (NCI-H226 lung) was under 10 nM and the TGI (NCI-H226 lung) was under 10 nM. The GI50 ([…]-0 renal) was under 10 nM, the TGI (786-0 renal) was under 11.3 nM and the GI50 (SF-295 CNS) was under 10 nM. It also gave a TGI (SF-295 CNS) of under 10 nM, a GI50 (COLO 205 colon) of under 10 nM and a TGI (COLO 205 colon) of 54 nM. It also gave a GI50 (SW-620 colon) of under 10 nM, a TGI (SW-620 colon) of under 10 nM and a GI50 (HOP-62 NSCLC) of under 10 nM. For the same compound, the TGI (HOP-62 NSCLC) was under 12.5 nM, the GI50 (HS 578T breast) was under 10 nM and the TGI (HS 578T breast) was under 10 nM. It also gave a GI50 (U251 glioblastoma) of under 11.1 nM, a TGI (U251 glioblastoma) of 18.9 nM and a GI50 (MOLT-4 leukemia) of under 10 nM. It also gave a TGI (MOLT-4 leukemia) of under 10 nM, a GI50 (MDA-MB-231 breast) of under 10 nM and a TGI (MDA-MB-231 breast) of under 10 nM. It also gave a GI50 (SNB-75 CNS) of under 10 nM, a TGI (SNB-75 CNS) of under 10 nM and a GI50 (NCI-H322M lung) of 17.7 nM. For the same compound, the TGI (NCI-H322M lung) was 91.8 nM, the GI50 (SF-268 CNS) was under 10 nM and the TGI (SF-268 CNS) was under 10 nM. It also gave a GI50 (ACHN renal) of under 10 nM, a TGI (ACHN renal) of under 10 nM and a GI50 (HL-60(TB) leukemia) of under 10 nM. It also gave a TGI (HL-60(TB) leukemia) of under 10 nM, a GI50 (KM12 colon) of under 10 nM and a TGI (KM12 colon) of under 12.9 nM. For the same compound, the GI50 (SK-MEL-5 melanoma) was under 10 nM, the TGI (SK-MEL-5 melanoma) was under 10 nM and the GI50 (HT29 colon) was under 10 nM. For the same compound, the TGI (HT29 colon) was under 10 nM, the GI50 (UACC-62 melanoma) was under 10 nM and the TGI (UACC-62 melanoma) was under 10 nM. For the same compound, the GI50 (NCI/ADR-RES ovarian) was 32.1 nM, the TGI (NCI/ADR-RES ovarian) was 92.6 nM and the GI50 (NCI-H522 lung) was under 10 nM. For the same compound, the TGI (NCI-H522 lung) was under 10 nM, the GI50 (CAKI-1 renal) was under 10 nM and the TGI (CAKI-1 renal) was under 12 nM. For the same compound, the GI50 (HCT-116 colon) was under 10 nM, the TGI (HCT-116 colon) was under 10 nM and the GI50 (IGROV1 ovarian) was under 11 nM. The TGI (IGROV1 ovarian) was under 16 nM, the GI50 (HCC-2998 colon) was under 11.8 nM and the TGI (HCC-2998 colon) was under 16.5 nM. For the same compound, the GI50 (SK-MEL-28 melanoma) was under 10 nM, the TGI (SK-MEL-28 melanoma) was under 10 nM and the GI50 (OVCAR-3 ovarian) was under 10 nM. For the same compound, the TGI (OVCAR-3 ovarian) was under 10 nM, the GI50 (SK-OV-3 ovarian) was under 10 nM and the TGI (SK-OV-3 ovarian) was 30.3 nM. It also gave a GI50 (LOX IMVI melanoma) of under 10 nM, a TGI (LOX IMVI melanoma) of 15.9 nM and a GI50 (NCI-H23 lung) of under 10 nM. The TGI (NCI-H23 lung) was under 10 nM.
